Laboratory results taken from ChEMBL document CHEMBL6127139, “Lysine-Targeted Covalent Inhibitors of PI3Kδ Synthesis and Screening by In Situ Interaction Upgradation” (J Med Chem, 2024).
Activity calls are given as the source filed them. No cut-off for these calls is given here.

Legend:
[1] = Chemical reactivity of the compound with N-Boc-Lysine assessed as half-life at 1 uM by HPLC analysis; format: physicochemical; conditions: incubation with N-Boc-Lysine
[2] = target: T1, Phosphatidylinositol 4,5-bisphosphate 3-kinase catalytic subunit delta isoform (Homo sapiens, UniProt O00329); assay: Inhibition of recombinant PI3Kdelta (unknown origin) using PIP2:3PS as substrate preincubated for 20 mins followed by ATP addition and measured after 1 hrs by ADP-Glo reagent based assay
T1 sequence (O00329 whole entry): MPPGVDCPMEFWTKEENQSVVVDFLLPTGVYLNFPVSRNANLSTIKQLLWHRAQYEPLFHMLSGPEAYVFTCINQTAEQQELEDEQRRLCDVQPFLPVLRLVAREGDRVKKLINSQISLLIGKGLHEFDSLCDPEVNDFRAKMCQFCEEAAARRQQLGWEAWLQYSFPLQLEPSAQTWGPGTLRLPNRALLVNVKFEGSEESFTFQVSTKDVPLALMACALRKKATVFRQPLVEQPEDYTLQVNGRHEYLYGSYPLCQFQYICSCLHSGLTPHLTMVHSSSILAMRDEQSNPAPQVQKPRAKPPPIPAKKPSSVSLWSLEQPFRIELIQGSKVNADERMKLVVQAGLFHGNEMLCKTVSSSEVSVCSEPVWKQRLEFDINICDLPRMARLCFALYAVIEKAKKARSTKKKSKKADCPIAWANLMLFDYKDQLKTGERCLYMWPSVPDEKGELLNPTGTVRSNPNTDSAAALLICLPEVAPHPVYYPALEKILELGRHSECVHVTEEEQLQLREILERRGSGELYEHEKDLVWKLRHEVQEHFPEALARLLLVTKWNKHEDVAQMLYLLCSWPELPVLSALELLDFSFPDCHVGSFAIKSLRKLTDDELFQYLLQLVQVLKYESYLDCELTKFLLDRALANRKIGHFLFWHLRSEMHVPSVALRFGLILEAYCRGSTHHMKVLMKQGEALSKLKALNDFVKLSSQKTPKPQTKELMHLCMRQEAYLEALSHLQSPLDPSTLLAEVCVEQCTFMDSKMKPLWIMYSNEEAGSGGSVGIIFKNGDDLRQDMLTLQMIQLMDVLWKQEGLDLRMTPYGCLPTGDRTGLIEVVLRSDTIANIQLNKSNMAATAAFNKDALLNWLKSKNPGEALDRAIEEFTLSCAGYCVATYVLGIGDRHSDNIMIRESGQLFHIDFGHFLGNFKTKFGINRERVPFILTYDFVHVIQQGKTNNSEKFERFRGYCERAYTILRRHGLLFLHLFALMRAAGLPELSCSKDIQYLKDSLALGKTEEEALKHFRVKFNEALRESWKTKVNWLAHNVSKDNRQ

[3] = Growth inhibition of PI3Kdelta-overexpressing human Pfeiffer cells incubated for 72 hrs by MTT assay; format: functional
[4] = target: T2, Phosphatidylinositol 4,5-bisphosphate 3-kinase catalytic subunit delta isoform (Homo sapiens) (UniProt O00329); assay: Potency index, ratio of idelalisib IC50 to test compound IC50 for inhibition of recombinant PI3Kdelta (unknown origin) using PIP2:3PS as substrate preincubated for 20 mins followed by ATP addition and measured after 1 hrs by ADP-Glo reagent based assay; conditions: time 80.0 min
T2 sequence (whole entry): T1 sequence (O00329 whole entry)

SU-DHL-6 [5] = assay: Potency index, ratio of idelalisib GI50 to test compound GI50 for growth inhibition of PI3Kdelta-overexpressing human SU-DHL-6 cells incubated for 72 hrs by MTT assay; format: functional
[6] = Stability of compound in PBS at pH 7.4 incubated for 24 hrs at 37 degreeC by HPLC analysis; format: physicochemical; conditions: buffer, pH 7.4, 24 h
[7] = Stability of compound in water/acetonitrile solution incubated for 24 hrs by HPLC analysis; format: physicochemical; conditions: buffer
[8] = Selectivity index, ratio of IC50 for inhibition of recombinant PI3Kalpha (unknown origin) using PIP2:3PS as substrate to IC50 for inhibition of recombinant PI3Kdelta (unknown origin) using PIP2:3PS as substrate
[9] = target: Phosphatidylinositol 4,5-bisphosphate 3-kinase catalytic subunit gamma isoform (Homo sapiens, UniProt P48736); assay: Inhibition of recombinant PI3Kgamma (unknown origin) using PIP2:3PS as substrate preincubated for 20 mins followed by ATP addition and measured after 1 hrs by ADP-Glo reagent based assay
MCF7 = assay: Growth inhibition of human MCF7 cells incubated for 72 hrs by MTT assay; format: functional
Raji = assay: Growth inhibition of human Raji cells incubated for 72 hrs by MTT assay; format: functional
[10] = Selectivity ratio of GI50 for human HCT-116 cells to GI50 for PI3Kdelta overexpressing human SU-DHL-6; format: functional
SU-DHL-6 [11] = assay: Antiproliferative activity against human SU-DHL-6 cells assessed as inhibition of cell viability preincubated for 12 hrs followed by compound washout and measured after 60 hrs by MTT assay; format: functional, cell-based
SU-DHL-6 [12] = assay: Irreversible inhibition of AKT phosphorylation in human SU-DHL-6 cells preincubated for 12 hrs followed by compound washout and measured after 24 hrs by Western blot analysis; format: cell-based
SU-DHL-6 [13] = assay: Irreversible inhibition of AKT phosphorylation in human SU-DHL-6 cells preincubated for 12 hrs followed by compound washout and measured upto 72 hrs by Western blot analysis; format: cell-based
[14] = target: T2, Phosphatidylinositol 4,5-bisphosphate 3-kinase catalytic subunit delta isoform (Homo sapiens); assay: Binding affinity to PI3Kdelta in human SU-DHL-6 cells preincubated for 1 hrs followed by (S)-phenyl 5-(4-((1-(1-(3-azidopropanoyl)piperidine-4-carbonyl)pyrrolidin-3-yl)amino)pyrido[3,2-d]pyrimidin-6-yl)-2-methoxynicotinate addition and measured after 2 hrs by DBCO-Cy3 based SDS-PAGE analysis; format: cell-based; conditions: time 3.0 hrs
[15] = target: T1, Phosphatidylinositol 4,5-bisphosphate 3-kinase catalytic subunit delta isoform; assay: Covalent inhibition of PI3Kdelta (unknown origin) using PIP2:3PS as substrate assessed as inhibition constant incubated upto 180 mins in presence of ATP by ADP-Glo reagent based assay
SU-DHL-6 [16] = assay: Induction of apoptosis in human SU-DHL-6 cells assessed as late apoptotic cells at 0.01 uM incubated for 48 hrs by Annexin V-FITC/PI staining based flow cytometric analysis (reference value: 4.12 %); format: functional
SU-DHL-6 [17] = assay: Induction of apoptosis in human SU-DHL-6 cells assessed as viable cells at 0.1 uM incubated for 48 hrs by Annexin V-FITC/PI staining based flow cytometric analysis (reference value: 89.81 %); format: functional; conditions: read-out: Activity
SU-DHL-6 [18] = assay: Induction of apoptosis in human SU-DHL-6 cells assessed as early apoptotic cells at 0.1 uM incubated for 48 hrs by Annexin V-FITC/PI staining based flow cytometric analysis (reference value: 5.02 %); format: functional
SU-DHL-6 [19] = assay: Induction of apoptosis in human SU-DHL-6 cells assessed as late apoptotic cells at 0.1 uM incubated for 48 hrs by Annexin V-FITC/PI staining based flow cytometric analysis (reference value: 4.12 %); format: functional
SU-DHL-6 [20] = assay: Antitumor activity against human SU-DHL-6 cells xenografted in male nude mouse assessed as tumor growth inhibition at 30 mg/kg/day, po administered for 14 days relative to control; format: functional; conditions: SU-DHL-6, 336 h, time 14 day, read-out: TGI
[21] = Toxicity in male nude mouse xenografted with human SU-DHL-6 cells assessed as change in body weight at 5 to 30 mg/kg/day, po administered for 14 days; format: organism-based; conditions: in vivo, 336 h, dose 5-30 mg/kg/day, time 14 day

Sequence of Phosphatidylinositol 4,5-bisphosphate 3-kinase catalytic subunit gamma isoform (P48736 whole entry, canonical isoform): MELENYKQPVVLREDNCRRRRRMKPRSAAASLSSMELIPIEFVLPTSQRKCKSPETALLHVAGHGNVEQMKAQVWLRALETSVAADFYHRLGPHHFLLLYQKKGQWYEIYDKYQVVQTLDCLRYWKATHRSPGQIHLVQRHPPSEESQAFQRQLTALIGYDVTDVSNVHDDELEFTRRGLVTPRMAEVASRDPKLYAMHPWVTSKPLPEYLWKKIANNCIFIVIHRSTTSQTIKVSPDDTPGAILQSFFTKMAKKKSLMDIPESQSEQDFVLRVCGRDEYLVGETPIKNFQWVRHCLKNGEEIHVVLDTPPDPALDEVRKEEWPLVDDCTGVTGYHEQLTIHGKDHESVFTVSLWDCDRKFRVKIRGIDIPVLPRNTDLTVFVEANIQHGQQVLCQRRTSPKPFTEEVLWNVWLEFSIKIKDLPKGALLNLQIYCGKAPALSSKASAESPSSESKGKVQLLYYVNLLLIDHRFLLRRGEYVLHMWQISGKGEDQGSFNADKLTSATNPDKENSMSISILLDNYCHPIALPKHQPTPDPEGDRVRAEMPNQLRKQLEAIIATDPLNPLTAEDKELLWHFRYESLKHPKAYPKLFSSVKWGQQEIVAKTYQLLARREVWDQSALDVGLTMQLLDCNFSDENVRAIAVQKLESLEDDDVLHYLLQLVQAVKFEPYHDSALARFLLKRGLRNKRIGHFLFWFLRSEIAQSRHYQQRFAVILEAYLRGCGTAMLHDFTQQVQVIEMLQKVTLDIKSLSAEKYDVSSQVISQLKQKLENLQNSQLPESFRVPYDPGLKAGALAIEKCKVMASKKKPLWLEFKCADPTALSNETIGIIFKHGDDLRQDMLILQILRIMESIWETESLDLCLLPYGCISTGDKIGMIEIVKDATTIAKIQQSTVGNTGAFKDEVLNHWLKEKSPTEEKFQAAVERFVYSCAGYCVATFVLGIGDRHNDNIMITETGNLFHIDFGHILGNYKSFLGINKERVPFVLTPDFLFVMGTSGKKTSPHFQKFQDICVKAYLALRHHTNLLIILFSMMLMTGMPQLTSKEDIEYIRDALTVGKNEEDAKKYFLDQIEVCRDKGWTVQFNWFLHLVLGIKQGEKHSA

half-life at 1 µM [1]: 2.82 h
IC50 [2]: 0.27 nM
Ratio IC50 [4]: 10
Stability [6]: Stable
Stability [7]: Stable
Ratio IC50 [8]: > 1000
IC50 [9]: 94 nM
GI50 (MCF7): > 10000 nM
GI50 (Raji): 5390 nM
Activity [14]: Active
Ki [15]: 1.85 nM
SMILES: COc1ncc(-c2ccc3ncnc(N[C@H]4CCN(C(=O)C5CCOCC5)C4)c3n2)cc1C(=O)Oc1ccccc1
GI50 [3]: 102 nM
RatioGI50 (SU-DHL-6 [5]): ~10
RatioGI50 [10]: 2500
Activity (SU-DHL-6 [11]): Active
inhibition (SU-DHL-6 [12]): Active
inhibition (SU-DHL-6 [13]): Active
Activity (SU-DHL-6 [16]): 4.19%
viability at 0.1 µM (SU-DHL-6 [17]): 65.3%
Activity (SU-DHL-6 [18]): 17.68%
Activity (SU-DHL-6 [19]): 15.06%
inhibition in vivo at 30 mg/kg/day (SU-DHL-6 [20]): 95%
Activity [21]: Non-Toxic
